Values quoted from earlier work as cited in patent US20230201385A1, “[…] OF BACTERIA AND VIRUSES” (MULTI-MAGNETICS INCORPORATED, priority 2020, published 2023).

Assays:
[1] = system: Enterobacterales infections; settings: murine models
[2] = dog, i.v.

Row | Compound | Detection of infections by PET [1] | Accumulation in cells (Enterobacterales) | Duration of acceptable bone visualization [2] [days] | Mean standard uptake value (SUV) in bone ([2]; averaged over days 8-16) | Mean standard uptake value (SUV) in kidneys ([2]; averaged over days 8-16) | Mean standard uptake value (SUV) in liver ([2]; averaged over days 8-16) | Mean standard uptake value (SUV) in lungs ([2]; averaged over days 8-16)
1 | OC[C@@H](O)[C@@H](O)[C@H](O)[C@@H]([18F])CO [^18F-FDS, 2-Deoxy-2[^18F]fluoro-D-sorbitol] | specifically detect Enterobacterales infections | accumulate in Enterobacterales but not in healthy mammalian or cancer cells | – | – | – | – | –
2 | O=P([O-])([O-])O.O=P([O-])([O-])O.[89Zr+4] [^89Zr-phosphate] | – | – | 20 | ~10 | ~3 | ~3 | ~3
